Assay results reported in US12162859B2, “Crystalline and amorphous forms of a compound for the targeted degradation of estrogen receptor” (Arvinas Operations, Inc., priority 2020, dated 2024).
Values after ≈ are worked out from the molar mass of the structure shown.

Tests used:
Type in all cases: physicochemical
[1] = Thermodynamic solubility of Form I in solvents and aqueous pH media; settings: for solubility thermodynamic: thermodynamic from solid
[2] = Hygroscopicity (DVS water uptake at 90% RH)
[3] = Relative stability of the four identified polymorphic forms
From the text: A summary of the relevant characteristics of Form I is found below in Table 10: […]

[4] = 1 week stability of Form I under storage conditions

Solid form recovered in thermodynamic solubility test ([1]; 1-Butanol): Form I
solubility thermodynamic ([1]; 1-butanol, organic solvent or mixture): 500 µg/mL (≈ 691 µM)
Solid form recovered in thermodynamic solubility test ([1]; Acetone): Form I (PO)
solubility thermodynamic ([1]; DCM:methanol (90:10 v/v), organic solvent or mixture): > 67000 µg/mL
Solid form recovered in thermodynamic solubility test ([1]; Dichloromethane): Form I (PO)
Solid form recovered in thermodynamic solubility test ([1]; Ethanol): Form I
Solid form recovered in thermodynamic solubility test ([1]; Methanol): Form I
solubility thermodynamic ([1]; N,N′-dimethylacetamide, organic solvent or mixture): > 100000 µg/mL
solubility thermodynamic ([1]; THF, organic solvent or mixture): > 67000 µg/mL
solubility thermodynamic ([1]; acetone, organic solvent or mixture): 4000 µg/mL (≈ 5530 µM)
solubility thermodynamic ([1]; aqueous pH medium, pH 1, simulated gastric fluid): 100 µg/mL (≈ 138 µM)
solubility thermodynamic ([1]; aqueous pH medium, pH 4, aqueous buffer): < 50 µg/mL
solubility thermodynamic ([1]; aqueous pH medium, pH 5, aqueous buffer): < 50 µg/mL
solubility thermodynamic ([1]; aqueous pH medium, pH 6, aqueous buffer): < 50 µg/mL
solubility thermodynamic ([1]; dichloromethane, organic solvent or mixture): 14800 µg/mL (≈ 20400 µM)
solubility thermodynamic ([1]; ethanol, organic solvent or mixture): 800 µg/mL (≈ 1110 µM)
solubility thermodynamic ([1]; methanol, organic solvent or mixture): 1100 µg/mL (≈ 1520 µM)
Solid form recovered in thermodynamic solubility test ([1]; pH 1): Form I
Solid form recovered in thermodynamic solubility test ([1]; pH 4): Amorphous
Solid form recovered in thermodynamic solubility test ([1]; pH 5): Form I
Solid form recovered in thermodynamic solubility test ([1]; pH 6): Form I
Hygroscopicity (water uptake at 90% RH) ([2]; 90% RH): 1.7%
hygroscopicity ([2]; at 90% RH): 1.7 wt. %
Post-DVS XRPD ([2]; solid form by XRPD after DVS): Form I
Stability relative to the other identified forms [3]: most stable
1 Week Stability, solid form ([4]; 40° C./75% RH): Form I
1 Week Stability, solid form ([4]; 80° C.): Form I
1 Week Stability, solid form ([4]; Ambient): Form I
Compound: O=C1CC[C@H](N2Cc3cc(N4CCN(CC5CCN(c6ccc([C@@H]7c8ccc(O)cc8CC[C@@H]7c7ccccc7)cc6)CC5)CC4)ccc3C2=O)C(=O)N1 [Form I, (S)-3-(5-(4-((1-(4-((1R,2S)-6-hydroxy-2-phenyl-1,2,3,4-tetrahydronaphthalen-1-yl)phenyl)piperidin-4-yl)methyl)piperazin-1-yl)-1-oxoisoindolin-2-yl)piperidine-2,6-dione]
